Reference: PubChem BioAssay (NCI)
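Cells were grown in 96-well plates and exposed to each compound for 48 hours at five concentrations; endpoints were interpolated linearly between bracketing concentrations, or set to the highest concentration if not reached. Here, GI50 denotes the concentration required for 50% inhibition of growth. TGI is the concentration that stops growth completely.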

Tests used:
Assay in all cases: NCI tumour cell line growth inhibition, 48 h
[1] = system: HCT-15 colon
[2] = system: CCRF-CEM leukemia
[3] = system: T-47D breast
[4] = system: TK-10 renal
[5] = system: MALME-3M melanoma
[6] = system: ACHN renal
[7] = system: UO-31 renal
[8] = system: OVCAR-8 ovarian
[9] = system: SF-268 CNS
[10] = system: KM12 colon
[11] = system: SK-MEL-28 melanoma
[12] = system: NCI-H522 lung
[13] = system: HS 578T breast
[14] = system: MDA-MB-435
[15] = system: HL-60(TB) leukemia
[16] = system: SK-OV-3 ovarian
[17] = system: OVCAR-5 ovarian
[18] = system: SNB-19 CNS
[19] = system: RPMI-8226 leukemia
[20] = system: A498 renal
[21] = system: SF-539 CNS
[22] = system: EKVX NSCLC
[23] = system: LOX IMVI melanoma
[24] = system: HCT-116 colon
[25] = system: SK-MEL-5 melanoma
[26] = system: BT-549 breast
[27] = system: HOP-62 NSCLC
[28] = system: SN12C renal
[29] = system: SF-295 CNS
[30] = system: M14 melanoma
[31] = system: HCC-2998 colon
[32] = system: U251 CNS
[33] = system: MDA-MB-231 breast
[34] = system: OVCAR-3 ovarian
[35] = system: MCF7 breast
[36] = system: HT29 colon
[37] = system: 786-0 renal
[38] = system: HOP-92 NSCLC
[39] = system: SR leukemia
[40] = system: OVCAR-4 ovarian
[41] = system: PC-3 prostate
[42] = system: DU-145 prostate
[43] = system: COLO 205 colon
[44] = system: UACC-62 melanoma
[45] = system: IGROV1 ovarian
[46] = system: SNB-75 CNS
[47] = system: RXF 393 renal
[48] = system: MOLT-4 leukemia
[49] = system: SW-620 colon
[50] = system: NCI-H460 lung
[51] = system: NCI-H23 lung
[52] = system: CAKI-1 renal
[53] = system: UACC-257 melanoma
[54] = system: K-562 leukemia
[55] = system: NCI-H226 lung
[56] = system: NCI/ADR-RES ovarian
[57] = system: A549 NSCLC
[58] = system: SK-MEL-2 melanoma

CCn1c(-c2nonc2N)nc2c(C#CC(C)(C)O)nc(CN3CCCC3)cc21
GI50 [1]: > 25 µM
TGI [1]: > 25 µM
GI50 [2]: 20.5 µM
TGI [2]: > 25 µM
GI50 [3]: 6.84 µM
TGI [3]: > 25 µM
GI50 [4]: 17.9 µM
TGI [4]: > 25 µM
GI50 [5]: > 25 µM
TGI [5]: > 25 µM
GI50 [6]: > 25 µM
TGI [6]: > 25 µM
GI50 [7]: > 25 µM
TGI [7]: > 25 µM
GI50 [8]: > 25 µM
TGI [8]: > 25 µM
GI50 [9]: > 25 µM
TGI [9]: > 25 µM
GI50 [10]: > 25 µM
TGI [10]: > 25 µM
GI50 [11]: > 25 µM
TGI [11]: > 25 µM
GI50 [12]: 18.3 µM
TGI [12]: > 25 µM
GI50 [13]: 7.39 µM
TGI [13]: > 25 µM
GI50 [14]: > 25 µM
TGI [14]: > 25 µM
GI50 [15]: > 25 µM
TGI [15]: > 25 µM
GI50 [16]: > 25 µM
TGI [16]: > 25 µM
GI50 [17]: > 25 µM
TGI [17]: > 25 µM
GI50 [18]: > 25 µM
TGI [18]: > 25 µM
GI50 [19]: > 25 µM
TGI [19]: > 25 µM
GI50 [20]: 1.39 µM
TGI [20]: 14.6 µM
GI50 [21]: 16.9 µM
TGI [21]: > 25 µM
GI50 [22]: > 25 µM
TGI [22]: > 25 µM
GI50 [23]: > 25 µM
TGI [23]: > 25 µM
GI50 [24]: > 25 µM
TGI [24]: > 25 µM
GI50 [25]: > 25 µM
TGI [25]: > 25 µM
GI50 [26]: 18.8 µM
TGI [26]: > 25 µM
GI50 [27]: > 25 µM
TGI [27]: > 25 µM
GI50 [28]: > 25 µM
TGI [28]: > 25 µM
GI50 [29]: 10.9 µM
TGI [29]: > 25 µM
GI50 [30]: > 25 µM
TGI [30]: > 25 µM
GI50 [31]: > 25 µM
TGI [31]: > 25 µM
GI50 [32]: > 25 µM
TGI [32]: > 25 µM
GI50 [33]: > 25 µM
TGI [33]: > 25 µM
GI50 [34]: > 25 µM
TGI [34]: > 25 µM
GI50 [35]: 20 µM
TGI [35]: > 25 µM
GI50 [36]: > 25 µM
TGI [36]: > 25 µM
GI50 [37]: 18.7 µM
TGI [37]: > 25 µM
GI50 [38]: > 25 µM
TGI [38]: > 25 µM
GI50 [39]: > 25 µM
TGI [39]: > 25 µM
GI50 [40]: > 25 µM
TGI [40]: > 25 µM
GI50 [41]: > 25 µM
TGI [41]: > 25 µM
GI50 [42]: > 25 µM
TGI [42]: > 25 µM
GI50 [43]: > 25 µM
TGI [43]: > 25 µM
GI50 [44]: > 25 µM
TGI [44]: > 25 µM
GI50 [45]: 9.23 µM
TGI [45]: > 25 µM
GI50 [46]: 8.29 µM
TGI [46]: > 25 µM
GI50 [47]: 6.31 µM
TGI [47]: > 25 µM
GI50 [48]: > 20.4 µM
TGI [48]: > 25 µM
GI50 [49]: > 25 µM
TGI [49]: > 25 µM
GI50 [50]: > 25 µM
TGI [50]: > 25 µM
GI50 [51]: > 25 µM
TGI [51]: > 25 µM
GI50 [52]: > 25 µM
TGI [52]: > 25 µM
GI50 [53]: > 25 µM
TGI [53]: > 25 µM
GI50 [54]: > 25 µM
TGI [54]: > 25 µM
GI50 [55]: > 25 µM
TGI [55]: > 25 µM
GI50 [56]: > 25 µM
TGI [56]: > 25 µM
GI50 [57]: > 25 µM
TGI [57]: > 25 µM
GI50 [58]: > 25 µM
TGI [58]: > 25 µM

Nc1cccc(CCN2CCN(CCCc3ccccc3)CC2)c1
TGI [1]: 38.2 µM
TGI [2]: > 100 µM
TGI [3]: 52.6 µM
TGI [4]: > 100 µM
TGI [5]: 38 µM
TGI [6]: > 100 µM
TGI [7]: > 100 µM
TGI [8]: 63.2 µM
TGI [9]: > 100 µM
TGI [10]: 81.5 µM
TGI [11]: 88.4 µM
TGI [12]: 30.1 µM
TGI [13]: > 100 µM
TGI [14]: 36.9 µM
TGI [15]: > 100 µM
TGI [16]: > 100 µM
TGI [17]: > 100 µM
TGI [18]: > 100 µM
TGI [19]: > 100 µM
TGI [20]: > 100 µM
TGI [21]: 40.6 µM
TGI [22]: > 100 µM
TGI [23]: 33.1 µM
TGI [24]: 36.7 µM
TGI [25]: 34.3 µM
TGI [26]: > 100 µM
TGI [27]: > 100 µM
TGI [28]: > 100 µM
TGI [29]: 70 µM
TGI [30]: 32.3 µM
TGI [31]: 28.2 µM
TGI [32]: > 100 µM
TGI [33]: > 100 µM
TGI [34]: 41.2 µM
TGI [35]: 36.4 µM
TGI [36]: 46.5 µM
TGI [37]: 37.4 µM
TGI [38]: 53.8 µM
TGI [39]: 65.9 µM
TGI [40]: > 100 µM
TGI [41]: > 100 µM
TGI [42]: > 100 µM
TGI [43]: 34.8 µM
TGI [44]: 52.7 µM
TGI [45]: > 100 µM
TGI [46]: > 100 µM
TGI [47]: 52.2 µM
TGI [48]: > 100 µM
TGI [49]: > 100 µM
TGI [50]: 71.4 µM
TGI [51]: > 100 µM
TGI [52]: > 100 µM
TGI [53]: 65.3 µM
TGI [54]: > 100 µM
TGI [55]: > 100 µM
TGI [56]: > 100 µM
TGI [57]: > 100 µM
TGI [58]: > 100 µM
